Laboratory results published in US20250368620A1, “ARNT Degrading Compounds and Uses Thereof” (Celgene Corporation, priority 2024, published 2025).

molecular target: T1, ARNT (Homo sapiens, UniProt P27540); assay: ARNT degradation in a HiBiT system (HEK293 ARNT-HiBiT Knock-In cell line); format: cell-based; settings: half-maximal degradation concentration; HEK293 ARNT-HiBiT KI cells, 4h of treatment, luminescence
T1 construct: an sgRNA targeting the C-terminus of the ARNT gene near the stop codon; endogenous in cells; host or cells: HEK293 ARNT-HiBiT knock-in, homozygous clone
T1 sequence (P27540 whole entry): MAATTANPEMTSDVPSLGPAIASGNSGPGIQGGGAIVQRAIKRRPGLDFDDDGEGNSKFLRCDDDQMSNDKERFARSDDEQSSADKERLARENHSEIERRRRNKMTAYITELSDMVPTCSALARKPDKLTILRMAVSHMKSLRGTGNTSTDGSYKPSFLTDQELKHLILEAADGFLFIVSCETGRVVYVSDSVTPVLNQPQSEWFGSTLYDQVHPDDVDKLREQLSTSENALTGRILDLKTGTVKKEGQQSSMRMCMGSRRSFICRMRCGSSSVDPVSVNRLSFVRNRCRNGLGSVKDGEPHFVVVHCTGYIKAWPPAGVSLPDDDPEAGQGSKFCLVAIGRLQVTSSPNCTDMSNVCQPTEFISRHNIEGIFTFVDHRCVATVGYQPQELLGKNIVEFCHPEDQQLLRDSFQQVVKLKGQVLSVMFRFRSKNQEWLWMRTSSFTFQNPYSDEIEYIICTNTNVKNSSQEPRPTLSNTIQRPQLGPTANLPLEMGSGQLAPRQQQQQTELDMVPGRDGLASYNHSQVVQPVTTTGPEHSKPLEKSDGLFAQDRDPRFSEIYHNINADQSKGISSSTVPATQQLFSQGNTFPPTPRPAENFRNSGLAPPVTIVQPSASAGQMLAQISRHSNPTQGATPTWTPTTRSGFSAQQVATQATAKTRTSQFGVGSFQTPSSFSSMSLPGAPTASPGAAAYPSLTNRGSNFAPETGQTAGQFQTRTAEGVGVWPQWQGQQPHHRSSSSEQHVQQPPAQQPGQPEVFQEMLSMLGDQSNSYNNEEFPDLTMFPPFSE
Procedure: Compounds of Formula (I) were tested for ARNT degradation in a HiBiT system. A HEK293 ARNT-HiBiT Knock-In cell line was generated using CRISPR/Cas9 technology. Briefly, HEK293 cells were electroporated with the Neon system with an sgRNA targeting the C-terminus of the ARNT gene near the stop codon ([…] (SEQ ID NO: 1); chr 1: 150,812,014-150,812,034) and the HiBiT donor DNA template (80 nucleotides homology arms upstream and downstream of the insert site, with a GSGS (SEQ ID NO: 2) linker). A homozygous clone was selected after Sanger sequencing, and genetic edition was further validated using Nano-Glo HiBiT blotting system. HEK293 ARNT-HiBiT KI cells were cultured in DMEM+10% FBS at 37° C. and 5% CO2. For the assay, cells were seeded at 10,000 cells/well in white 384 plates (Corning #3570) in 22.5 μl of culture medium without phenol red. Test compounds were spotted in 384-well plates by an acoustic dispenser (10 concentrations, semi-log dilution, in 100% DMSO). Before treatment, compounds were diluted 1:100 or 1:1,000 in culture medium without phenol red, and cells were treated with 2.5 μl of diluted compounds 18h after seeding (final top concentration: 3 or 0.3 μM). After 4h of treatment, plates were equilibrated at room temperature for 30 min, and 25 μl of NANO-GLO® HiBiT Lytic reagent were added per well. Luminescence was measured on a plate reader 15 min after incubation with the detection reagent. Data were analyzed using the Genedata Screener Software version 19, and normalization was performed using the DMSO treated wells as Neutral Control and medium only (without cells) wells as Scale Reference. For curve fitting, the smart fit condensing method with a 4-parameters Hill model was used and the half-maximal degradation concentration (DC50) was calculated.

| Structure (SMILES) | DC50 |
| --- | --- |
| Cc1ccc2c(c1F)CN(C(=O)c1ccc3c(c1)[C@@H](C)N([C@H]1CCC(=O)NC1=O)C3=O)[C@H]2C [Compound 26, (S)-3-((R)-5-((S)-4-fluoro-1,5-dimethylisoindoline-2-carbonyl)-3-methyl-1-oxoisoindolin-2-yl)piperidine-2,6-dione] | 1.7 nM |
| C[C@@H]1c2cc(C(=O)N3Cc4ccc(F)cc4[C@@H]3C)ccc2C(=O)N1[C@H]1CCC(=O)NC1=O [Compound 27, (S)-3-((R)-5-((S)-6-fluoro-1-methylisoindoline-2-carbonyl)-3-methyl-1-oxoisoindolin-2-yl)piperidine-2,6-dione] | 1.7 nM |
| COc1ccc2c(c1)CN(C(=O)c1ccc3c(c1)[C@@H](C)N([C@H]1CCC(=O)NC1=O)C3=O)[C@H]2CN(C)C [Compound 28, (S)-3-((R)-5-((R)-1-((dimethylamino)methyl)-5-methoxyisoindoline-2-carbonyl)-3-methyl-1-oxoisoindolin-2-yl)piperidine-2,6-dione] | 1.7 nM |
| C[C@@H]1c2c(ccc(C(=O)N3Cc4ccccc4[C@@H]3CN(C)C)c2F)C(=O)N1[C@H]1CCC(=O)NC1=O [Compound 29, (S)-3-((R)-5-((R)-1-((dimethylamino)methyl)isoin-doline-2-carbonyl)-4-fluoro-3-methyl-1-oxoisoindolin-2-yl)piperidine-2,6-dione] | 1.8 nM |
| C[C@@H]1c2cc(C(=O)N3Cc4c(ccc(Cl)c4F)[C@@H]3C)ccc2C(=O)N1[C@H]1CCC(=O)NC1=O [Compound 30, (S)-3-((R)-5-((S)-5-chloro-4-fluoro-1-methylisoindoline-2-carbonyl)-3-methyl-1-oxoisoindolin-2-yl)piperidine-2,6-dione] | 1.9 nM |
| C[C@@H]1c2cc(C(=O)N3Cc4cc(C(F)(F)F)ccc4[C@@H]3C)ccc2C(=O)N1[C@H]1CCC(=O)NC1=O [Compound 31, (S)-3-((R)-3-methyl-5-((S)-1-methyl-5-(trifluoromethyl)isoindoline-2-carbonyl)-1-oxoisoindolin-2-yl)piperidine-2,6-dione] | 2.2 nM |
| C[C@@H]1c2cc(C(=O)N3Cc4c(ccc(C(F)(F)F)c4F)[C@@H]3C)ccc2C(=O)N1[C@H]1CCC(=O)NC1=O [Compound 32, (S)-3-((R)-5-((S)-4-fluoro-1-methyl-5-(trifluoromethyl)isoindoline-2-carbonyl)-3-methyl-1-oxoisoindolin-2-yl)piperidine-2,6-dione] | 2.3 nM |
| COc1c(C(=O)N2Cc3c(ccc(Cl)c3F)[C@@H]2C)ccc2c1[C@@H](C)N([C@H]1CCC(=O)NC1=O)C2=O [Compound 33, (S)-3-((R)-5-((S)-5-chloro-4-fluoro-1-methylisoindoline-2-carbonyl)-4-methoxy-3-methyl-1-oxoisoindolin-2-yl)piperidine-2,6-dione] | 3 nM |
| C[C@@H]1c2cc(C(=O)N3Cc4c(ccc(C(F)(F)F)c4Cl)[C@@H]3C)ccc2C(=O)N1[C@H]1CCC(=O)NC1=O [Compound 34, (S)-3-((R)-5-((S)-4-chloro-1-methyl-5-(trifluoromethyl)isoindoline-2-carbonyl)-3-methyl-1-oxoisoindolin-2-yl)piperidine-2,6-dione] | 3.1 nM |
| COc1c(C(=O)N2Cc3cc(C(F)(F)F)ccc3[C@@H]2C)ccc2c1[C@@H](C)N([C@H]1CCC(=O)NC1=O)C2=O [Compound 35, (S)-3-((R)-4-methoxy-3-methyl-5-((S)-1-methyl-5-(trifluoromethyl)isoindoline-2-carbonyl)-1-oxoisoindolin-2-yl)piperidine-2,6-dione] | 3.3 nM |
| C[C@H]1c2ccc(Br)c(F)c2CN1C(=O)c1ccc2c(c1)CN(C1CCC(=O)NC1=O)C2=O (stereo partly drawn) [Compound 36, 3-(5-((S)-5-bromo-4-fluoro-1-methylisoindoline-2-carbonyl)-1-oxoisoindolin-2-yl)piperidine-2,6-dione] | 3.4 nM |
| C[C@@H]1c2cc(C(=O)N3Cc4cc(C(F)(F)F)ccc4[C@@H]3C)ccc2C(=O)N1[C@@H]1CCC(=O)NC1=O [Compound 37, (R)-3-((R)-3-methyl-5-((S)-1-methyl-5-(trifluoromethyl)isoindoline-2-carbonyl)-1-oxoisoindolin-2-yl)piperidine-2,6-dione] | 6.5 nM |
| C[C@H]1c2ccc(C(F)(F)F)cc2CN1C(=O)c1ccc2c(c1)CN(C1CCC(=O)NC1=O)C2=O (stereo partly drawn) [Compound 38, 3-(5-((S)-1-methyl-5-(trifluoromethyl)isoindoline-2-carbonyl)-1-oxoisoindolin-2-yl)piperidine-2,6-dione] | 7.6 nM |
